One may read the IC50 as the midpoint of a concentration-inhibition curve. A lower IC50 goes with inhibition by little substance. The Ki is a measure of affinity in units of concentration, obtained from inhibition or displacement.

The target of data set [1] is T1, P. aeruginosa LysRS (Pseudomonas aeruginosa, UniProt Q9HXU0).
T1 sequence (Q9HXU0 1-501): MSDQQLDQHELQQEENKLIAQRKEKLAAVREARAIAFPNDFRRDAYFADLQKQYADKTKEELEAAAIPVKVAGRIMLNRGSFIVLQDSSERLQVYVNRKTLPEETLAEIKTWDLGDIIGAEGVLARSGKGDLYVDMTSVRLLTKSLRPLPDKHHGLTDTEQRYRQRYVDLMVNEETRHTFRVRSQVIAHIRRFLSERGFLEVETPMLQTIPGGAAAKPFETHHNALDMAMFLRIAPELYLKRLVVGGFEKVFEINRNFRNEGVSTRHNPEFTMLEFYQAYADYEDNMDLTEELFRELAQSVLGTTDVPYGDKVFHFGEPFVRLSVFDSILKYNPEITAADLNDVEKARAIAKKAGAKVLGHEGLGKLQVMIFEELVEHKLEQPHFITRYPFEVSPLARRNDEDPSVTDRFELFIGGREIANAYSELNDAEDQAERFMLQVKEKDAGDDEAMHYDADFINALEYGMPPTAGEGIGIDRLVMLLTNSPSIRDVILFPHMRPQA
Nature of the data set: SPA-based tRNA aminoacylation assay. It counts as biochemical.

In data set [2] the target is T1, P. aeruginosa LysRS. The data set can be described thus: Binding mode. It counts as biochemical. To be noted: for mechanism of inhibition with respect to ATP: IC50 at ATP 25 to 1000 μM, amino acid constant; for mechanism of inhibition with respect to ATP / mechanism of inhibition with respect to lysine: LysRS 0.01 μM; for mechanism of inhibition with respect to lysine: IC50 at lysine 25 to 300 μM, ATP 2.5 mM.

The test system of another data set is M. catarrhalis. The data set can be described thus: Time-kill kinetic assay. It counts as cell-based, Moraxella catarrhalis. Particulars: 4×MIC, 0 to 24 h.
In data set [3] the test system is human embryonic kidney 293 cells (HEK-293).
For data set [4], the system named is gram-positive bacterial cultures. To be noted: cited from earlier work.
Data set [5] relates to human embryonic kidney 293 cells (HEK-293). The data set can be described thus: MTT cytotoxicity assay. To be noted: HEK-293, MTT, 25 to 400 μg/mL, 24 h. On the technique in general: Tetrazolium assays rely on reduction of a dye to a coloured formazan, in cell work by metabolically active cells.
The subject of another data set is eukaryotic LysRS. Particulars: cited from earlier work.
The target of data set [6] is T1, P. aeruginosa LysRS. Nature of the data set: ATP:PPi exchange reaction, substrate kinetics. To be noted: substrate varied, other substrate held at 2 mM; LysRS 0.1 μM.

Values joined by “and” are separate entries in the source; they are usually repeats but may differ in a detail not shown here. Equal values may be shown once. “Also recorded” adds a separate entry of the source. Read-outs that look alike come from different tables or passages of the source.

In turn, `C=CC1=C(C)/C(=C/c2[nH]c(Cc3[nH]c(/C=C4\NC(=O)C(C)=C4C=C)c(C)c3CCC(=O)O)c(CCC(=O)O)c2C)NC1=O` [BM01D09, bilirubin] gave an IC50 at P. aeruginosa LysRS [1] of 17 µM. On P. aeruginosa LysRS [2], the Ki was found to be 3.5 µM, the “mechanism of inhibition with respect to ATP” value was “competing with ATP; also recorded: IC50 also increased; also recorded: competitive inhibition” and the “mechanism of inhibition with respect to lysine” value is “no change in the IC50”. At P. aeruginosa LysRS [2] (listed as bilirubin), the “mechanism of inhibition with respect to ATP” value was “competitive with ATP” and the “mechanism of inhibition with respect to lysine” value was “noncompetitive with lysine”. Besides, in the data set with M. catarrhalis, the “global mode of inhibition (time-kill)” value is reported as “bacteriostatic”. Besides, the “CC50 relative to MICs against susceptible bacteria” value in data set [3] was 6-20 fold. The “inhibition of growth of gram-positive bacterial cultures” value in data set [4] is listed as “inhibitory”.
Regarding `S=C(N/N=C1\CCCc2c1[nH]c1ccc(C3CCCCC3)cc21)Nc1ccccc1` [BT06F11, 1-[(~›E‹)-(6-cyclohexyl-2,3,4,9-tetrahydrocarbazol-1-ylidene)amino]-3-phenylthiourea], on P. aeruginosa LysRS [2], the “mechanism of inhibition with respect to ATP” value is recorded as “mechanism other than substrate competition; also recorded: noncompetitive; also recorded: not observed to be competitive” and the “mechanism of inhibition with respect to lysine” value is reported as “mechanism other than substrate competition; also recorded: noncompetitive; also recorded: not observed to be competitive”. Also, the “global mode of inhibition (time-kill)” value in the data set on M. catarrhalis is on record as “bactericidal; also recorded: inhibited growth by killing the bacteria”. For the same molecule, the “toxicity to human cell growth (in words)” value in data set [5] is given as “not toxic at any concentration tested; also recorded: not observed to be toxic”.
Turning to `O=C(CCCCCCCCC(=O)N/N=C/c1ccc([N+](=O)[O-])o1)N/N=C/c1ccc([N+](=O)[O-])o1` [BT08F04, ~›N‹,~›N‹′-bis[(~›E‹)-(5-nitrofuran-2-yl)methylideneamino]decanediamide], on P. aeruginosa LysRS [2], the “mechanism of inhibition with respect to ATP” value is given as “competitive with ATP; also recorded: competitive inhibition” and the “mechanism of inhibition with respect to lysine” value is “uncompetitive with the amino acid”. The Ki at P. aeruginosa LysRS [2] (read-out: mean Ki, calculated from IC50 values determined at 75 μM lysine and 2.5 mM ATP, multiple determinations) is 3.4 µM. For the same molecule, the “global mode of inhibition (time-kill)” value with M. catarrhalis is “bactericidal; also recorded: inhibited growth by killing the bacteria”.
On to `C[C@H]1CCC[C@H](C[C@H]2Cc3cc(O)cc(O)c3C(=O)O2)O1` [cladosporin], for which the “inhibition of eukaryotic LysRS (in words)” value in the data set with eukaryotic LysRS is recorded as “potent ATP competitive inhibitor”.
`NCCCC[C@H](N)C(=O)O` [lysine]: the “kcat^obs” value on P. aeruginosa LysRS [6] was 13 s⁻¹ and 13.3 s⁻¹.

The record behind these values is PMC6925310 (SLAS discovery : advancing life sciences R & D, 2019).
